The numbers were not newly measured in patent US20210008096A1, “SUPPRESSION OR REDUCTION OF THE PAT[…] VIRULENCE OF A C[…]” (Da Volterra, priority 2015, published 2021), which cites them from elsewhere.

For this series, the system named is Clostridium difficile. The settings on record: following treatment of CDAD; 15% vs 25%.

With `CCc1c(Cl)c(O)c(Cl)c(O)c1C(=O)O[C@H]1[C@H](O)[C@H](OC)[C@H](OC/C2=C\C=C\C[C@H](O)/C(C)=C/[C@H](CC)[C@@H](O[C@@H]3OC(C)(C)[C@@H](OC(=O)C(C)C)[C@H](O)[C@@H]3O)/C(C)=C/C(C)=C/C[C@@H]([C@@H](C)O)OC2=O)O[C@@H]1C` [fidaxomycin, fidaxomicin], the rate of recurrence was 15%.
